Measured values from patent US6747052B2, “Substituted indole-2-carboxylic acid benzylidene-hydrazides and analogs as activators of caspases and inducers of apoptosis and the use thereof” (Cytovia, Inc., priority 2000, dated 2004).
Entries after “also recorded” stand apart in the source; their conditions may differ. Read-outs that look alike come from different tables or passages of the source.

Key:
[1] = system: Jurkat cells; assay: Nuclear fragmentation in Jurkat cells (Syto16 staining); assay type: cell-based; conditions: 5 μM, 24 h
Protocol: The ability of 5-chloro-3-methyl-indole-2-carboxylic acid (4-nitrobenzylidene)-hydrazide to induce nuclear fragmentation, an indicator of apoptosis, was tested by treatment of Jurkat cells with the test compound followed by staining of the nucleus with Syto16, a fluorescent DNA dye (Molecular Probes, Eugene, Oreg.). The nuclei of Jurkat cells treated with vehicle control (DMSO) are seen to be round with dispersed chromatin that is moderately stained with Syto16 (FIG. 1A).

[2] = system: Jurkat cells; assay: Mitotic arrest in Jurkat cells (mitotic figures, Syto 16); assay type: cell-based; conditions: Homo sapiens, 6 h
Protocol: Jurkat cells were incubated with a range of concentrations of 5-chloro-3-methyl-indole-2-carboxylic acid (4-nitrobenzylidene)-hydrazide (0.02 μM to 5 μM) for 6 h under normal growth conditions; control cultures were treated with DMSO vehicle. The cells were then treated for 20 min. with 800 nM Syto 16 (Molecular Probes, Eugene, Oreg.). Cytospin preparations were then prepared and the samples were viewed by fluorescent microscopy using a fluorescein filter set. For each concentration of test compound, the number of mitotic figures were counted and expressed as a percentage of the total number of cells. Three fields from each condition were evaluated and the mean and SEM were calculated and plotted as a function of drug concentration (FIG. 2).

[3] = system: HeLa cells; assay: Clonogenic survival of HeLa cells; assay type: cell-based; conditions: for IC50: Homo sapiens
Protocol: HeLa cells were grown according to media component mixtures designated by American Type Culture Collection +10% FCS (Invitrogen Corporation, Life Technologies division), in a 5% CO2-95% humidity incubator at 37° C. In a well of a 96 well plate, 30,000 cells were seeded and treated with testing compound at the indicated concentrations for 48 hr in a 5% CO2-95% humidity incubator at 37° C. Control wells were treated with the same amount of solvent (DMSO) as the compound samples. After the indicated treatment time, the supernatant was removed to a sterile culture tube and the wells washed with phosphate buffered saline, and the adherent cells trypsinized for 5 min. The trypsinzed cells were added to the culture supernatant, cells were collected (1,200 rpm, 10 min), washed with phosphate buffered saline, and resupended in fresh media. The cells were counted for trypan blue negative cells, and the cells diluted with fresh media to 1,000 cells/ml. To a well of a 24-well plate, 0.1 ml of the cell suspension was added along with 1 ml of fresh media (cell suspensions were passed through a 22G needle several times just before plating to form single cell suspensions). Plates are incubated in a 5% CO2-95% humidity incubator at 37° C. for 5-7 days. Colonies are counted when the sizes reached greater than 50 cells per colony. Cells are washed with phosphate buffered saline, fixed with 100% methanol for 15 min, and then stained with 0.5% gentian violet for 15 min. Colonies are rinsed with water and the colonies counted and the fraction surviving expressed as the percentage of the number of control colonies.

[4] = system: ZR-75-1; assay: Caspase cascade activation (N-(Ac-DEVD)-N'-ethoxycarbonyl-R110 fluorogenic substrate) in ZR-75-1 cells; assay type: cell-based, Human; conditions: ZR-75-1, 24 h incubation with compound; for EC50: Homo sapiens; for Caspase activity Ratio (net RFU of test compound to control): 3 h substrate reading
Protocol: (§1) Human breast cancer cell lines T-47D and ZR-75-1 were grown according to media component mixtures designated by American Type Culture Collection +10% FCS (Invitrogen Corporation, Life Technologies division), in a 5% CO2-95% humidity incubator at 37° C. T-47D and ZR-75-1 cells were maintained at a cell density between 30 and 80% confluency at a cell density of 0.1 to 0.6×10^6 cells/ml. Cells were harvested at 600×g and resuspended at 0.65×10^6 cells/ml into appropriate media +10% FCS. An aliquot of 45 μl of cells was added to a well of a 96-well microtiter plate containing 5 μl of a 10% DMSO in RPMI-1640 media solution containing 0.16 to 100 μM of 5-chloro-3-methyl-indole-2-carboxylic acid (4-nitrobenzylidene)-hydrazide (Compound A) or other test compound (0.016 to 10 μM final). An aliquot of 45 μl of cells was added to a well of a 96-well microtiter plate containing 5 μl of a 10% DMSO in RPMI-1640 media solution without test compound as the control sample. The samples were mixed by agitation and then incubated at 37° C. for 24 h in a 5% CO2-95% humidity incubator. After incubation, the samples were removed from the incubator and 50 μl of a solution containing 20 μM of N-(Ac-DEVD)-N′-ethoxycarbonyl-R110 fluorogenic substrate (Cytovia, Inc.; WO99/18856), 20% sucrose (Sigma), 20 mM DTT (Sigma), 200 mM NaCl (Sigma), 40 mM Na PIPES buffer pH 7.2 (Sigma), and 500 μg/ml lysolecithin (Calbiochem) was added. The samples were mixed by agitation and incubated at room temperature. Using a fluorescent plate reader (Model 1420 Wallac Instruments), an initial reading (T=0) was made approximately 1-2 min after addition of the substrate solution, employing excitation at 485 nm and emission at 530 nm, to determine the background fluorescence of the control sample. After the 3 h incubation, the samples were read for fluorescence as above (T=3 h).
(§2) The Relative Fluorescence Unit values (RFU) were used to calculate the sample readings as follows: RFU(T=3h)−Control RFU(T=0)=Net RFU(T=3h)
(§3) The activity of caspase cascade activation was determined by the ratio of the net RFU value for 5-chloro-3-methyl-indole-2-carboxylic acid (4-nitrobenzylidene)-hydrazide (Compound A) or other test compound to that of control samples. The EC50 (nM) was determined by a sigmoidal dose-response calculation (Prism 2.0, GraphPad Software Inc.).

[5] = system: T-47D; assay: Inhibition of cell proliferation (GI50, CellTiter 96 AQueous One) in T-47D cells; assay type: cell-based; conditions: Homo sapiens, T47D, 48 h, read-out: GI50 (dose for 50% inhibition of cell proliferation)
Protocol: (§4) T-47D and ZR-75-1 cells were grown and harvested as in Example 1. An aliquot of 90 μl of cells (2.2×10^4 cells/ml) was added to a well of a 96-well microtiter plate containing 10 μl of a 10% DMSO in RPMI-1640 media solution containing 1 nM to 100 μM of 5-chloro-3-methyl-indole-2-carboxylic acid (4-nitrobenzylidene)-hydrazide (Compound A) or 5-chloro-3-phenyl-indole-2-carboxylic acid (4-nitrobenzylidene)-hydrazide (Compound B) (0.1 nM to 10 μM final). An aliquot of 90 μl of cells was added to a well of a 96-well microtiter plate containing 10 μl of a 10% DMSO in RPMI-1640 media solution without compound as the control sample for maximal cell proliferation (AMax). The samples were mixed by agitation and then incubated at 37° C. for 48 h in a 5% CO2-95% humidity incubator. […] Using an absorbance plate reader (Model 1420 Wallac Instruments), an initial reading (T=0) was made approximately 1-2 min after addition of the solution, employing absorbance at 490 nm. This determines the possible background absorbance of the test compounds. No absorbance for 5-chloro-3-methyl-indole-2-carboxylic acid (4-nitrobenzylidene)-hydrazide or 5-chloro-3-phenyl-indole-2-carboxylic acid (4-nitrobenzylidene)-hydrazide was found at 490 nm. After the 2-4 h incubation, the samples were read for absorbance as above (ATest). […]

[6] = system: ZR-75-1; assay: Inhibition of cell proliferation (GI50, CellTiter 96 AQueous One) in ZR-75-1 cells; assay type: cell-based; conditions: Homo sapiens, ZR-75-1, 48 h; read-out: GI50 (dose for 50% inhibition of cell proliferation)
Protocol: as §4

[7] = system: T47D cells; assay: Cell cycle arrest and apoptosis in T47D cells (propidium iodide flow cytometry); assay type: cell-based, Human; conditions: 10 μM, 48 h
Protocol: T47D, a breast cancer cell line, was maintained and harvested as described in Example 1. 1×10^6 Cells were treated with 10 μM of 5-chloro-3-methyl-indole-2-carboxylic acid (4-nitrobenzylidene)-hydrazide for 48 h at 37° C. As a control, cells were also incubated with equivalent amount of solvent (DMSO). Cells were harvested at 1,200 rpm and washed twice with 5 mM EDTA/PBS. Cells were then resuspended in 300 μl EDTA/PBS and 700 μl of 100% ethanol, vortexed and incubated at room temperature for 1 h. Samples were spun down at 1,200 rpm for 5 min and the supernatant was removed. A solution containing 100 μg/ml of propidium iodide and 1 mg/ml of RNAse A (fresh) was added to the samples and incubated for 1 h at room temperature. Samples were then transferred to 12×75 mm polystyrene tubes and analyzed on a flow cytometer. All flow cytometry analyses were performed on FACScalibur (Becton Dickinson) using Cell Quest analysis software. The x-axis plotted the amount of fluorescence and the y-axis is plotted the number of cells with the indicated fluorescence. […] An increase in the sub-diploid DNA content of cells (marker M1 region, FIG. 3) is also seen to increase from 2% to 25% with compound treatment. The sub-diploid amount of DNA (M1) is indicative of apoptotic cells which have undergone DNA degradation or fragmentation.

[8] = system: T-47D; assay: Caspase cascade activation (N-(Ac-DEVD)-N'-ethoxycarbonyl-R110 fluorogenic substrate) in T-47D cells; assay type: cell-based, Human; conditions: 24 h incubation with compound; for Caspase activity Ratio (net RFU of test compound to control): 3 h substrate reading; for EC50: Homo sapiens, T47D
Protocol: as §1, §2, §3

[9] = 48 hr treatment, read-out: IC50 of colony forming ability
[10] = 48 h treatment, FIG. 4 legend, read-out: IC50 of colony formation

SMILES | Nuclear morphology (nuclear fragmentation) [1] | EC50 [2] [nM] | IC50 [3, 9] [nM] | IC50 [3, 10] [nM] | EC50 [4] [nM] | Caspase activity Ratio (net RFU of test compound to control) [4] | GI50 [5] [nM] | GI50 [6] [nM] | G2/M DNA content (M4) of cells [7] | Sub-diploid DNA content of cells (M1) ([7]; control 2%) [%] | Caspase activity Ratio (net RFU of test compound to control) [8] | EC50 [8] [nM] | Increase in potency in clonogenic survival assay versus Compound A ([3]; 48 hr treatment) [fold]
Cc1c(C(=O)NN=Cc2ccc([N+](=O)[O-])cc2)[nH]c2ccc(Cl)cc12 [Compound A, 5-chloro-3-methyl-indole-2-carboxylic acid (4-nitrobenzylidene)-hydrazide] | shrunken and fragmented nuclei | ~800 | ~3000 | ~3000 | 532 | 7.0 | 2000 | 12000 | increase in G2/M DNA content; also recorded: an increase in the G2/M (M4) | 25 | 6.9 | 2000 | –
O=C(NN=Cc1ccc([N+](=O)[O-])cc1)c1[nH]c2ccc(Cl)cc2c1-c1ccccc1 [Compound B, 5-chloro-3-phenyl-indole-2-carboxylic acid (4-nitrobenzylidene)-hydrazide] | – | – | ~300 | ~300 | 276 | 2.9 | 100 | – | – | – | 3 | 501 | 10
Cc1ccc(C=NNC(=O)c2[nH]c3ccc(Cl)cc3c2C)cc1 [Example 1, 5-Chloro-3-methyl-indole-2-carboxylic Acid (4-Methylbenzylidene)-hydrazide] | – | – | – | – | 187 | 2.6 | – | – | – | – | 3.7 | 253 | –
Cc1c(C(=O)NN=Cc2ccccc2)[nH]c2ccc(Cl)cc12 [Example 2, 5-Chloro-3-methyl-indole-2-carboxylic Acid (Benzylidene)-hydrazide] | – | – | – | – | 1490 | 4.1 | – | – | – | – | 5.1 | 4280 | –
Cc1c(C(=O)NN=Cc2ccc(N(C)C)cc2)[nH]c2ccc(Cl)cc12 [Example 3, 5-Chloro-3-methyl-indole-2-carboxylic Acid (4-Dimethylaminobenzylidene)-hydrazide] | – | – | – | – | 449 | 7.2 | – | – | – | – | 6.0 | 939 | –
Cc1ccc(C=NNC(=O)c2[nH]c3ccc(C)cc3c2-c2ccccc2)cc1 [Example 13, 5-Methyl-3-phenyl-indole-2-carboxylic Acid (4-Methylbenzylidene)-hydrazide] | – | – | – | – | 100 | 7.6 | – | – | – | – | 3.1 | 300 | –
Cc1ccc2[nH]c(C(=O)NN=Cc3ccc(N(C)C)cc3)c(-c3ccccc3)c2c1 [Example 14, 5-Methyl-3-phenyl-indole-2-carboxylic Acid (4-Dimethylaminobenzylidene)-hydrazide] | – | – | – | – | 830 | 4.1 | – | – | – | – | 3.5 | 2400 | –
Cc1c(C(=O)NN=Cc2ccc(Cl)cc2)[nH]c2ccc(Cl)cc12 [Example 21, 5-Chloro-3-methyl-indole-2-carboxylic Acid (4-Chlorobenzylidene)-hydrazide] | – | – | – | – | 2770 | 3.5 | – | – | – | – | 4.2 | 3650 | –
